Results as given in US20250051279A1, “TRYPTAMINE COMPOSITIONS AND METHODS” (priority 2022, published 2025).

Legend:
[1] = oral; cited from earlier work
[2] = Dynamic vapor sorption (DVS) hygroscopicity; type: physicochemical; design: key to Hygroscopicity: “+/+/+” indicates most favorable; “+/+” indicates more favorable; “+” indicates favorable; “−” indicates unfavorable; “−/−” indicates more unfavorable; “−/−/−” indicates most unfavorable; settings: for physical form conversion throughout the DVS cycle: DVS cycle 0-95% RH; for hygroscopicity (in words): DVS isotherm; for acquisition of water on exposure to elevated relative humidities: >95% RH
Source text: Pharmaceutically acceptable salts of the compound of Formula (I) suitable for pharmaceutical manufacture may also be characterized as non-hygroscopic or slightly hygroscopic, preferably non-hygroscopic. The hygroscopicity may be measured herein by performing a moisture adsorption-desorption isotherm using a dynamic vapor sorption (DVS) analyzer with a starting exposure of 30% relative humidity (RH), increasing humidity up to 95% RH, decreasing humidity to 0%, and finally increasing the humidity back to the starting 30% RH, and classified according to the following: • non-hygroscopic: <0.2%; slightly hygroscopic: ≥0.2% and <2%; hygroscopic: ≥2% and <15%; very hygroscopic: ≥15%; deliquescent: sufficient water is absorbed to form a liquid; all values measured as weight increase (w/w due to acquisition of water) at >95% RH and 25° C.
Dynamic vapor sorption-desorption experiments were carried out using a DVS Resolution instrument supplied by Surface Measurement Systems. Data were acquired using the following acquisition parameters: • Solvent; Water • Start relative humidity; 30% RH • Relative humidity cycle (% RH); 30, 40, 50, 60, 70, 80, 90, 95, 90, 80, 70, 60, 50, 40, 30, 20, 10, 0, 10, 20, 30 • Equilibrium condition (dm/dt); 0.002%/minute • Equilibrium condition window; 10 minutes • Minimum stage period; 5 minutes • Maximum stage period; 360 minutes • Temperature; 25° C. • Carrier gas; Nitrogen • Carrier gas flow rate; 200 mL·min^−1 (Total)
Typically, 20-50 mg of the test substance was mounted in a gauze basket and transferred to the sample port. Excess static electricity was removed throughout sample handling and sample mounting using a ^210Po static eliminator. Instrument performance checks were completed using traceable samples of sodium chloride and lithium chloride. For selected samples, the cycle was repeated using the same sample to assess any change in physical form induced on exposure to elevated relative humidity.

[3] = Salt form assessment (crystallization propensity, DSC/XRPD physical properties, appearance, counter-ion acceptability, salt suitability); type: physicochemical; design: key: “+/+/+” indicates most favorable; “+/+” indicates more favorable; “+” indicates favorable; “−” indicates unfavorable; “−/−” indicates more unfavorable; “−/−/−” indicates most unfavorable; settings: for Physical properties (crystallinity, melt, enthalpy, polymorph tendency): DSC, XRPD; for Crystallization propensity: crystallization from ethanol
Protocol: Samples were analyzed by differential scanning calorimetry (DSC), X-ray powder diffraction (XRPD), and dynamic vapor sorption (DVS). In addition, the appearance and visual properties of each sample were assessed, in addition to propensity for crystallization.
A summary of the data obtained from the analyses of the individual salt forms of Examples 1-9 are presented in Table 10, with advantageous and detrimental properties summarized using the following nomenclature: “+/+/+” indicates most favorable; “+/+” indicates more favorable; “+” indicates favorable; “−” indicates unfavorable; “−/−” indicates more unfavorable; “−/−/−” indicates most unfavorable.

[4] = prolonged storage; cited from earlier work

Row | Compound | orally active dose (lowest) [1] [µg] | very strong psychedelic doses [1] [µg] | Hygroscopicity ([2]; DVS) | physical form conversion throughout the DVS cycle [2] | hygroscopicity (in words) [2] | acquisition of water on exposure to elevated relative humidities ([2]; DVS, 25° C.) [% w/w] | Appearance [3] | Physical properties (crystallinity, melt, enthalpy, polymorph tendency) [3] | Crystallization propensity [3] | water uptake ([2]; DVS, 25° C., on exposure to 95% RH) | behavior at elevated relative humidities ([2]; DVS) | water uptake at relative humidities exceeding 80% ([2]; DVS, >80% RH) | equilibrium water content ([2]; DVS, typical ambient relative humidities) [%] | storage sensitivity [4]
1 | COc1cc(CCNCc2ccccc2OC)c(OC)cc1Cl [2C—C-NBOMe, 2-(4-Chloro-2,5-dimethoxyphenyl)-N-[(2-methoxyphenyl)methyl]ethan-1-amine] | ≥ 25 | 500 to 700 |  |  |  |  |  |  |  |  |  |  |  | 
2 | CN(C)CCc1c[nH]c2ccccc12 [Example 1, 2-(1H-indol-3-yl)-N,N-dimethylethan-1-amine] |  |  | +/+/+ | no evidence of physical form conversion | no significant hygroscopicity | < 0.2 | +/+/+ | +/+/+ | +/+/+ |  |  |  |  | 
3 | CN(C)CCc1c[nH]c2ccccc12 [Example 2, 2-(1H-indol-3-yl)-N,N-dimethylethan-1-amine] |  |  | +/+/+ | no evidence of physical form conversion | no significant hygroscopicity | < 0.05 | +/+/+ | +/+/+ | +/+/+ |  |  |  |  | 
4 | CN(C)CCc1c[nH]c2ccccc12 [Example 3, 2-(1H-indol-3-yl)-N,N-dimethylethan-1-amine] |  |  | +/+/+ | no evidence of physical form conversion | no significant hygroscopicity | < 0.06 | +/+/+ | +/+/+ | + |  |  |  |  | 
5 | CN(C)CCc1c[nH]c2ccccc12 [Example 4, 2-(1H-indol-3-yl)-N,N-dimethylethan-1-amine] |  |  | +/+/+ | no evidence of physical form conversion | no significant hygroscopicity | < 0.5 | +/+/+ | +/+/+ | − |  |  |  |  | 
6 | CN(C)CCc1c[nH]c2ccccc12 [Example 5, 2-(1H-indol-3-yl)-N,N-dimethylethan-1-amine] |  |  | − |  |  |  | +/+ | +/+ | + | approximately 3 % w/w |  |  |  | 
7 | CN(C)CCc1c[nH]c2ccccc12 [Example 6, 2-(1H-indol-3-yl)-N,N-dimethylethan-1-amine] |  |  | −/−/− |  |  |  | +/+/+ | +/+ | − |  | deliquesce |  |  | 
8 | CN(C)CCc1c[nH]c2ccccc12 [Example 7, 2-(1H-indol-3-yl)-N,N-dimethylethan-1-amine] |  |  | −/−/− | a phase change was induced |  |  | − | −/− | − |  |  | excessive | > 3 | 
9 | CN(C)CCc1c[nH]c2ccccc12 [Example 8, 2-(1H-indol-3-yl)-N,N-dimethylethan-1-amine] |  |  | −/−/− |  |  |  | − | −/− | − |  | deliquesce |  |  | 
10 | CN(C)CCc1c[nH]c2ccccc12 [Example 9, 2-(1H-indol-3-yl)-N,N-dimethylethan-1-amine] |  |  | −/−/− |  |  |  | − | −/− | − |  |  |  |  | 
11 | CN(C)CCc1c[nH]c2ccccc12 [Example I-1, 2-(1H-indol-3-yl)-N,N-dimethylethan-1-amine] |  |  |  |  |  |  |  |  |  |  |  |  |  | sensitive to oxygen, heat, and light
